Our source for the IC50 and inhibition values is patent publication EP1268431B1 (Wyeth, priority 2000, dated 2001).

The target in one assay is T1, c-Src (Homo sapiens, UniProt P12931).
T1 construct: purchased Upstate Biotechnologies
The experiment in a line: c-Src Kinase Assay (ELISA format). The class given is biochemical. The protocol: Inhibitors of Src (partially purified preparation purchased from Upstate Biotechnologies) tyrosine kinase activity are analyzed in an ELISA format. […] Horseradish Peroxidase (HRP)-conjugated anti-phosphotyrosine is used to detect phosphorylated peptide via a color reaction. Conditions recommended by the manufacturer are employed.
Reaction conditions: Five microliter aliquots of each compound prepared fresh at the time of the assay are added as a solution in 10mM HEPES pH 7.5, 10% DMSO to the reaction well. Thirty-five microliters of reaction mix containing Src, buffer and peptide/bovine serum albumin mix are added to the compound wells and incubated at 30°C for 10 minutes (reaction buffer: 50mM TrisHCl pH 7.5, 10mM MgCl2, 0.1mM EGTA, 0.5mM Na3VO4). The reaction is started by addition of 10 microliters of ATP, incubated at 30°C for 1 hour, and stopped by addition of 20 microliters of 0.5M EDTA. The reaction mixture with the phosphorylated peptide is then transferred to a streptavidin-coated microtiter plate (provided in the kit) and allowed to bind for 20 minutes. Unbound peptide and reaction mixture is decanted and the plate is washed with PBS six times. HRP-conjugated phosphotyrosine antibody supplied in the kit is incubated with the plate for one hour, then decanted. The plate is again washed with PBS six times.
Activity is determined as % inhibition as calculated by the formula: (1 - Abs/Abs(max)) x 100 = % inhibition.
In general terms: An ELISA detects its analyte on a solid surface through an enzyme-linked reagent.

The subject of assay [1] is Rat2 fibroblasts stably transformed with a plasmid containing a CMV promotor controlled v-Src/Hu c-Src fusion gene. Nature of the assay: Anchorage Independent Src-transformed Fibroblast Proliferation Assay.
Setting [2] is: Rattus norvegicus, Rat2, 120 h, read-out: anch-indep src-tx fib IC50, suspension growth, MTS on Day 5.
The mark [3] stands for this setting: read-out: anch-indep src-tx fib IC50, suspension growth, MTS on Day 5.

Several values for one entry are separate records, joined by “and”; a condition that tells them apart may be missing. Identical values can stand only once. Like-named read-outs stand apart in the source and are kept apart here.

Turning to `COc1cc(Nc2c(C#N)cnc3cc(-c4ccc(CNCCc5ccccn5)cc4)ccc23)c(Cl)cc1Cl` [Example 229, 4-(2,4-dichloro-5-methoxyanilino)-7-[4-({[2-(2-pyridinyl)ethyl]amino}methyl)phenyl]-3-quinolinecarbonitrile], the figures for the IC50 (on c-Src; in assay [1] (setting [2])) were 2.3 nM and 450 nM, respectively.
With `N#Cc1cnc2cc(-c3csc(CN4CCOCC4)c3)ccc2c1Nc1ccc(Cl)cc1Cl` [Example 25, 4-(2,4-Dichloroanilino)-7-[5-(4-morpholinylmethyl)-3-thienyl]-3-quinolinecarbonitrile], the IC50 (usually the concentration at which inhibition is half-maximal) was 3.6 nM and 6 nM and 4.9 nM on c-Src; 1300 nM in assay [1] (setting [2]); 930 nM in assay [1] (setting [3]).
As for `COc1cc(Nc2c(C#N)cnc3cc(/C=C/C(=O)O)ccc23)c(Cl)cc1Cl` [Example 99, (E)-3-[3-Cyano-4-(2,4-dichloro-5-methoxyanilino)-7-quinolinyl]-2-propenoic acid], the IC50 was 44 nM against c-Src and greater than 10000 nM in assay [1] (setting [2]).
Take `CCN1CCN(Cc2cc(-c3ccc4c(Nc5cc(OC)c(Cl)cc5Cl)c(C#N)cnc4c3)cs2)CC1` [Example 19, 4-(2,4-Dichloro-5-methoxyanilino)-7-{5-[(4-ethyl-1-piperazinyl)methyl]-3-thienyl}-3-quinolinecarbonitrile]: the IC50 against c-Src is 2 nM and 1.7 nM; in assay [1] (setting [2]), 160 nM.
`COc1cc(Nc2c(C#N)cnc3cc(-c4ccccc4C=O)ccc23)c(Cl)cc1Cl` [Example 114, 4-(2,4-Dichloro-5-methoxyanilino)-7-(2-formylphenyl)-3-quinolinecarbonitrile]: the IC50 at c-Src was 2200 nM; in assay [1] (setting [2]), greater than 10000 nM.
For `COc1cc(Nc2c(C#N)cnc3cc(-c4ccc(Oc5ccc(CN6CCOCC6)cc5)nc4)ccc23)c(Cl)cc1Cl` [Example 193, 4-(2,4-dichloro-5-methoxyanilino)-7-{6-[4-(4-morpholinylmethyl)phenoxy]-3-pyridinyl)-3-quinolinecarbonitrile], in that order: 34 nM and greater than 10000 nM.
For `COc1ccc(Cl)c(Nc2c(C#N)cnc3cc(-c4csc(CN5CCOCC5)c4)ccc23)c1` [Example 131, 4-(2-chloro-5-methoxyanilino)-7-[5-(4-morpholinylmethyl)-3-thienyl]-3-quinolinecarbonitrile] the same measures were 2 nM and 90 nM.
For `COc1cc(Nc2c(C#N)cnc3cc(C#CCO)ccc23)c(Cl)cc1Cl` [Example 143, 4-(2,4-dichloro-5-methoxyanilino)-7-(3-hydroxy-1-propynyl)-3-quinolinecarbonitrile] the same measures were 26 nM and greater than 10000 nM.
As for `COc1cc(Nc2c(C#N)cnc3cc(-c4ccc5ccccc5c4)ccc23)c(Cl)cc1Cl` [Example 117, 4-(2,4-Dichloro-5-methoxyanilino)-7-(2-naphthyl)-3-quinolinecarbonitrile], the half-inhibitory concentration (IC50) against c-Src is 210 nM and 160 nM and 120 nM; in assay [1] (setting [2]), 6900 nM.
For `COc1cc(Nc2c(C#N)cnc3cc(-c4ccc(CN5CCC[C@@H]5C(N)=O)o4)ccc23)c(Cl)cc1Cl` [Example 47, (2R)-1-({5-[3-Cyano-4-(2,4-dichloro-5-methoxyanilino)-7-quinolinyl]-2-furyl}methyl)-2-pyrrolidinecarboxamide], the figures for the IC50 (at c-Src; in assay [1] (setting [2])) were 1.1 nM and 1170 nM, respectively.
For `COc1cc(Nc2c(C#N)cnc3cc(-c4ncccc4CN4CCOCC4)ccc23)c(Cl)cc1Cl` [Example 111, 4-(2,4-Dichloro-5-methoxyanilino)-7-[3-(morpholin-4-ylmethyl)-pyridin-2-yl]-3-quinolinecarbonitrile], in that order: 410 nM and greater than 10000 nM.
For `COc1cc(Nc2c(C#N)cnc3cc(C#Cc4ccccc4)ccc23)c(Cl)cc1Cl` [Example 140, 4-(2,4-dichloro-5-methoxyanilino)-7-(2-phenylethynyl)-3-quinolinecarbonitrile], the IC50 at c-Src was 240 nM and 200 nM; in assay [1] (setting [2]), greater than 10000 nM.
For `COc1cc(Nc2c(C#N)cnc3cc(-c4ccc(C=O)cc4)ccc23)c(Cl)cc1Cl` [Example 83, 4-(2.4-Dichloro-5-methoxyanilino)-7-(4-formylphenyl)-3-quinolinecarbonitrile], the IC50 on c-Src came out at 42 nM; in assay [1] (setting [2]) it was 3900 nM.
For `COc1cc(Nc2c(C#N)cnc3cc(-c4cccn4C(=O)OC(C)(C)C)ccc23)c(Cl)cc1Cl` [Example 164, tert-butyl 2-[3-cyano-4-(2,4-dichloro-5-methoxyanilino)-7-quinolinyl]-1H-pyrrole-1-carboxylate], in that order: greater than 1000 nM and greater than 10000 nM.
For `COc1cc(Nc2c(C#N)cnc3cc(-c4ccc(CN5CCOCC5)c(CN5CCOCC5)c4)ccc23)c(Cl)cc1C` [Example 133, 7-[3,4-bis(4-morpholinylmethyl)phenyl]-4-(2-chloro-5-methoxy-4-methylanilino)-3-quinolinecarbonitrile] the same measures were 7 nM and 730 nM.
With `COc1cc(Nc2c(C#N)cnc3cc(-c4cc5ccccc5s4)ccc23)c(Cl)cc1Cl` [Example 120], the IC50 is 170 nM on c-Src and greater than 10000 nM in assay [1] (setting [3]).
As for `CCOC(=O)C1CCCCN1Cc1ccc(-c2ccc3c(Nc4cc(OC)c(Cl)cc4Cl)c(C#N)cnc3c2)cc1` (stereo not shown) [Example 145, ethyl 1-{4-[3-cyano-4-(2,4-dichloro-5-methoxyanilino)-7-quinolinyl]benzyl}-2-piperidinecarboxylate], the inhibition (usually the relative decrease from the control value, in per cent) at 0.01 µM against c-Src (at 10 nM) amounted to 17%. Further, in assay [1] (setting [2]), the IC50 was greater than 10000 nM.
Take `COc1cc(Nc2c(C#N)cnc3cc(-n4cccc4CN(C)C)ccc23)c(Cl)cc1Cl` [Example 93]: the IC50 was 610 nM and 680 nM at c-Src; greater than 10000 nM in assay [1] (setting [3]).
Consider “4-[(2,4-Dichloro-5-methoxyphenyl)amino]-7-[4-(4-morpholinyl)phenyl]-3-quinolinecarbonitrile [Example 128]”, for which the results for the IC50 (against c-Src; in assay [1] (setting [3])) were 3.2 nM and 640 nM, respectively.
Turning to `COc1cc(Nc2c(C#N)cnc3cc(-c4ccc(CN5CCOCC5)cc4)c(OC)cc23)c(Cl)cc1Cl` [Example 37, 4-(2,4-Dichloro-5-methoxyanilino)-6-methoxy-7-[4-(4-molpholinylmethyl)phenyl]-3-quinolinecarbonitrile], the IC50 on c-Src worked out at 19 nM; in assay [1] (setting [2]) it was 1590 nM; in assay [1] (setting [3]), 1490 nM.
For `COc1cc(Nc2c(C#N)cnc3cc(-c4cccc(CCN5CCOCC5)c4)c(OC)cc23)c(Cl)cc1Cl` [Example 38, 4-(2,4-Dichloro-5-methoxyanilino)-6-methoxy-7-{3-[2-(4-morpholinyl)ethyl]phenyl}-3-quinolinecarbonitrile] the same measures were 81 nM, 12700 nM and 10600 nM.
For `COc1cc(Nc2c(C#N)cnc3cc(-c4ccc(CN5CCOCC5)cc4)ccc23)c(Cl)cc1Cl` [Example 29, 4-(2,4-Dichloro-5-methoxyanilino)-7-[4-(4-morpholinylmethyl)phenyl]-3-quinolinecarbonitrile], the IC50 was 4.1 nM and 2.5 nM at c-Src; 540 nM in assay [1] (setting [2]); 500 nM in assay [1] (setting [3]).
With `COc1cc(Nc2c(C#N)cnc3cc(-c4cccc(N)c4)ccc23)c(Cl)cc1Cl` [Example 174, 7-(3-aminophenyl)-4-(2,4-dichloro-5-methoxyanilino)-3-quinolinecarbonitrile], the IC50 against c-Src stood at 95 nM; in assay [1] (setting [2]) it was 5600 nM.
On to `COc1cc(Nc2c(C#N)cnc3cc(-c4ccc(CN5CCN(C)CC5)n4C)ccc23)c(Cl)cc1Cl` [Example 71, 4-(2,4-Dichloro-5-methoxyanilino)-7-{1-methyl-5-[(4-methyl-1-piperazinyl)methyl]-1H-pyrrol-2-yl}-3-quinolinecarbonitrile], for which the IC50 against c-Src was 26 nM and 24 nM; in assay [1] (setting [2]) it was 6800 nM.
As to `N#Cc1cnc2cc(-c3ccc(CCN4CCOCC4)s3)ccc2c1Nc1ccc(Cl)cc1Cl` [Example 9, 4-(2,4-Dichloroanilino)-7-{5-[2-(4-morpholinyl)ethyl]-2-thienyl}-3-quinolinecarbonitrile], the half-inhibitory concentration (IC50) against c-Src was found to be 6 nM; in assay [1] (setting [2]), 2700 nM.
As to `COc1cc(Nc2c(C#N)cnc3cc(-c4ccc(CN5CCS(=O)(=O)CC5)cc4)ccc23)c(Cl)cc1Cl` [Example 150, 4-[(2,4-dichloro-5-methoxyphenyl)amino]-7-{4-[(1,1-dioxido-4-thiomorpholinyl)methyl]phenyl}-3-quinolinecarbonitrile], the IC50 against c-Src was 13 nM and 6.6 nM; in assay [1] (setting [2]), 500 nM; in assay [1] (setting [3]), 520 nM.
Regarding `COc1cc(Nc2c(C#N)cnc3cc(-c4ccc(N5CCOCC5)cc4)ccc23)c(Cl)cc1Cl` [Example 67, 4-(2,4-Dichloro-5-methoxyanilino)-7-[4-(4-morpholinyl)phenyl]-3-quinolinecarbonitrile], the IC50 is 3 nM and 4.9 nM on c-Src; 110 nM in assay [1] (setting [2]).
For `COc1cc(Nc2c(C#N)cnc3cc(-c4ccc(CN(CCO)CCO)o4)ccc23)c(Cl)cc1Cl` [Example 76, 7-(5-{[Bis(2-hydroxyethyl)amino]methyl}-2-furyl)-4-(2,4-dichloro-5-methoxyanilino)-3-quinolinecarbonitrile], the IC50 at c-Src amounted to 22 nM; in assay [1] (setting [2]) it was 1100 nM.
